Experiment: gradient 5% acetonitrile 3 min, to 50% in 2 min, to 85% in 15 min, held 3 min, 100 µL/min
Details: column: Zorbax Extend-C18 2.1 x 50 mm; eluents: water / acetonitrile, 0.1% formic acid
Method in brief: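 A Zorbax Extend-C18 column (2.1 × 50 mm, 1.8 μm) run at 100 μL/min with water and acetonitrile, both containing 0.1% formic acid, separated mixtures of ~100 pure standards. The HPLC was coupled to a quadrupole time-of-flight mass spectrometer operated in positive and negative ionization mode, with dead and dwell volumes of 40 μL and 900 μL. Each retention time was taken from a computationally picked adduct peak that was then manually inspected.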

Structure (SMILES)	RP-LC retention time [s]
CC(C)Sc1ccc2nn(CC(=O)Nc3ccc(Br)cc3F)c(=O)n2n1	843
Cc1ccc2c(c1)-c1onc(C(=O)N3CCN(c4ccccn4)CC3)c1CO2	747
CCCNC(=O)c1cnn2c3c(cnc12)CCCCCC3	976
CCOc1ccc(CNC(=O)C2CCCN(c3cc(=O)n(C)c(=O)n3CC)C2)cc1 (stereo not given)	812
Cn1cc(-c2cc3n(n2)CCC(=O)N3CCCC(=O)Nc2ccc(F)cc2F)c2ccccc21	860
CCCNC(=O)C1CCCN(c2ccc(SCC(=O)Nc3ccccc3OCC)nn2)C1 (stereo not given)	736
Cc1ccc(SCC(=O)Nc2nnc(Cc3ccc4c(c3)OCO4)o2)cc1	780
CC(=O)c1cccc(NC(=O)Cn2c(-c3ccc(Cl)cc3)nc(C)cc2=O)c1	1060
CCNc1nc(C)cc(N2CCN(S(=O)(=O)c3ccccc3C(F)(F)F)CC2)n1	732
CN(C)C(=O)c1cc(=O)[nH]c2c(Cl)cccc12	604
CCc1cc(=O)n(CC(=O)NCc2ccc(F)cc2Cl)c(N2CCOCC2)n1	749
COc1ccc(NC(=O)c2cc3c(=O)n(CC(C)C)ccc3n2C)cc1Cl	895
Cc1ccn2cc(-c3ccc(NC(=O)c4cccc([N+](=O)[O-])c4)cc3)nc2n1	652
COCC1(O)CCOC2(CCN(Cc3ccc(F)c(Cl)c3)CC2)C1 (stereo not given)	560
O=C(CSc1ncc(-c2ccccc2)[nH]1)N1CCCc2ccccc21	630
CNC(=O)c1cccc(NC(=O)N2CCC(Oc3ccccc3Cl)CC2)c1	899
O=C(Cc1ccsc1)Nc1cccc(-c2nnc3n2CCCC3)c1	668
Cc1cc(C)n2ncc(-c3ccc(C)c(S(=O)(=O)NCc4ccc(F)cc4Cl)c3)c2n1	1080
Clc1nccc2c1ccc1ccccc12	1140
CCNC(=O)N1CCC(c2noc(-c3cnccn3)n2)C1 (stereo not given)	608
COCCNC(=O)Cn1c(C(F)(F)F)nc2cc3c(cc21)OCCO3	641
COc1ccc(NC(=O)C2CC(=O)N(c3ccc4oc(C)nc4c3)C2)cc1 (stereo not given)	706
CCN1CCn2c(nc3cc(C(=O)NCc4ccc(C(F)(F)F)cc4)ccc32)C1=O	741

Structure (SMILES)	RP-LC retention time [s]
CC(C)c1cc(C(=O)Nc2ccc(F)cc2)nn1C1CCS(=O)(=O)C1 (stereo not given)	860
Cn1cc(C(=O)NCc2cccs2)c2cccnc21	691
COC(=O)C1=CN(c2cccc(OC)c2)c2cc(F)ccc2S1(=O)=O	857
Cc1cc2c(c(=O)n(-c3ccc(F)cc3)c(=O)n2CC(=O)Nc2ccc(F)cc2)n1C	825
COc1ccc(S(=O)(=O)Nc2cc(-c3cn4ccccc4n3)ccc2C)cc1C	682
Cc1cc2c(=O)n(CC(=O)Nc3ccc(F)cc3Cl)ccc2s1	812
Cc1cc(Cl)ccc1S(=O)(=O)N1CCc2nn(C)c(=O)n2CC1	756
N#Cc1cccc(NC(=O)C2CCN(S(=O)(=O)c3ccc4c(c3)NC(=O)CO4)CC2)c1	763
COc1ccc(-c2cc(C(=O)NCC(c3ccco3)N(C)C)no2)cc1 (stereo not given)	661
COC(=O)c1ccc(NC(=O)C(=O)NCC2CCN(Cc3cccs3)CC2)cc1	567
CC(C)N1C(=O)c2cccnc2Sc2cc(NC(=O)c3ccccc3)ccc21	864
Cc1cc(C)cc(-c2nc(-c3cccc(-c4ccn[nH]4)c3)no2)c1	999
O=C(CSCc1ccccc1)NCC1CCN(C(=O)Nc2ccc(F)cc2)CC1	770
O=C(NCC1CCCO1)c1ncoc1-c1ccccc1C(=O)N1CCCCC1 (stereo not given)	692
CCc1cccc(C)c1NC(=O)Cn1cnc2nc(N3CCC(C(=O)NC)CC3)sc2c1=O	646
Oc1ccc(-c2nc3ccc(Cl)cn3c2Nc2ccc3c(c2)OCCO3)cc1	748
COc1cccc(NC(=O)Cn2cnc(-c3noc(C4CC4)n3)c2)c1	725
O=C(NCCc1csc(C2CCN(C(=O)C3CCCC3)CC2)n1)C1CC1	690
CCOC(=O)C1=C(C)NC(=O)NC1c1ccc(-c2cccc([N+](=O)[O-])c2)o1 (stereo not given)	761
Cc1sc2ccn(C)c(=O)c2c1C(=O)N1CCN(c2ccc(F)cc2)CC1	746
Cc1nn2c(CNC(=O)C3CCN(C(=O)c4ccccc4)CC3)c(C)nc2s1	584
CCOC(=O)C1CCN(C(=O)C2CN(C(=O)c3ccncc3)CC23CCCCC3)CC1 (stereo not given)	703
CCCCn1nc2ccc(S(=O)(=O)N3CCCCC3)cn2c1=O	887

Structure (SMILES)	RP-LC retention time [s]
COCCn1cc(CCNC(=O)Nc2ccc(C)c(Cl)c2)c2cccnc21	812
CCN1C(=O)CCc2cc(NS(=O)(=O)c3cccc4cccnc34)ccc21	758
Fc1ccc(-c2nc(-c3ccc(-n4cccn4)nc3)no2)cc1	1230
CCCN1C(=O)c2cc(C(=O)NCc3ccccc3F)nn2CC1(C)C(=O)NC1CCCC1 (stereo not given)	836
Cc1ccc(NS(=O)(=O)c2cc(-c3cc(C(F)(F)F)on3)sc2C)cc1Cl	1190
COCCc1noc(-c2ccc(=O)n(CC(=O)NC3CCCCC3)c2)n1	684
COc1ccc2nc(C(=O)NCc3cccc(Cl)c3)cn2n1	846
CC(C)C(NC(=O)c1ccc(F)c(Cl)c1)C(=O)Nc1nc2ccccc2[nH]1 (stereo not given)	756
CCCNC(=O)C1CCN(Cc2cn(C)c3ccc(Cl)cc23)CC1	650
Cc1ccc(-c2csc(NC(=O)c3ccccc3Br)n2)c(C)c1	1150
CCOC(=O)COc1cc(-c2ccccc2)nc2ccc(NC(=O)COC)cc12	695
CCNc1cc(N2CCC(CCC(=O)NC3CCN(C(=O)OCC)CC3)CC2)ncn1	620
O=C1NC2(CCN(C(=O)Cc3cccc(F)c3)CC2)Nc2c(Cl)cccc21	785
CCOC(=O)C1CCN(c2cc3c(cc2NC(=O)CC)n(C)c(=O)c(=O)n3C)CC1	724
COc1cccc(-c2ccc(=O)n(CCc3nc(-c4cccc(OC)c4OC)no3)n2)c1	921
Cc1nn2c(S(=O)(=O)N3CCN(C4CCCCC4)CC3)c(C)nc2s1	608
COCCN1CC(CO)C2(CCN(Cc3ccc(Cl)c(F)c3)CC2)C1 (stereo not given)	555
Cc1cc(C)cc(NC(=O)Cn2c(=O)nc(N3CCC(C)CC3)c3ccccc32)c1	925
O=C(CN1CN(c2ccccc2)c2ncccc2S1(=O)=O)Nc1cccc(Cl)c1	983
Cn1cccc1C(=O)C(=O)NCc1ccc(Cl)cc1	906
O=C(CN1C(=O)COc2ccc(C(=O)N3CCCC3)cc21)NCCN1CCCCCC1	589
Cc1nc(-c2csc(S(=O)(=O)N3CCC(C(=O)N4CCC5(CC4)OCCO5)CC3)c2)no1	765
CCN(CC)C(=O)COc1ccc(NC(=O)C2CC2)cn1	664

Structure (SMILES)	RP-LC retention time [s]
CCC(=O)NCc1csc(C2CCN(C(=O)c3ccc(Br)cc3)CC2)n1	722
COc1cc(C)c(C)cc1S(=O)(=O)Nc1cccc(-c2ccc(N3CCCC3)nn2)c1	607
Cn1cc(-c2nc(C(=O)Nc3ccc(C#N)cc3)cs2)c2cccnc21	958
Cc1onc(-c2ccccc2Cl)c1C(=O)NCC1(c2cccs2)CC1	950
O=C(CN1C(=O)CCCc2ccccc21)NCCc1ccccc1	783
CCN1C(=O)Cc2ccccc2C1C(=O)NCc1ccc2c(c1)OCO2 (stereo not given)	727
Cc1cccc(NC(=O)Cn2nc(N3CCOCC3)c3ccccc3c2=O)c1	783
CCCOc1ccc(C(=O)Nc2nnc(C3CC(=O)N(c4ccccc4)C3)o2)cc1 (stereo not given)	800
Cc1ccccc1-c1noc(Cc2nnc(-c3ccc(F)cc3)o2)n1	1040
COc1ccc(OC)c(NC(=O)Nc2c(-c3cccc(C)c3)nc3ccccn23)c1	696
CC1CCCC(C)N1CCCNC(=O)Cn1ncc2c3ccccc3n(C)c2c1=O (stereo not given)	632
Cc1cccc(-c2nc3cnccn3c2NCCC(=O)N2CCCC2)c1	650
CC(C(=O)N1CCC(c2cc(N)on2)CC1)c1ccccc1 (stereo not given)	722
COc1ccc(-c2ccc3nc(N4CCC(C(=O)NC(C)C)CC4)sc3n2)cc1	926
CCc1nc2cc(-c3noc(-c4cncc(Br)c4)n3)ccc2o1	1160
Cn1c(N2CCN(C(=O)c3c(F)cccc3F)CC2)cc(=O)n(C)c1=O	648
CCOc1ccc(S(=O)(=O)N2CCC(C(=O)NC)CC2)cc1C	761
CCN1c2ccccc2C(=O)NC12CCN(C(=O)c1cccc(F)c1)CC2	742
Cc1ccccc1-n1ncc2c(NCc3ccco3)ncnc21	708
CC(C)c1ccc(CNC(=O)c2ccc3c(c2)nc2n3CCN(C(C)C)C2=O)cc1	823
O=C(CN1CCCCC1c1nc(-c2ccc(F)cc2)no1)NC1CCCCC1 (stereo not given)	1150

From the METLIN SMRT retention time set (Domingo-Almenara et al. 2019)
